# Target: T1, androgen receptor (AR) (Homo sapiens, UniProt P10275, T878A)
# T1 construct: LNCaP cells express endogenous AR; endogenous in cells; host or cells: LNCaP cells
# T1 sequence (P10275 1-920 T878A): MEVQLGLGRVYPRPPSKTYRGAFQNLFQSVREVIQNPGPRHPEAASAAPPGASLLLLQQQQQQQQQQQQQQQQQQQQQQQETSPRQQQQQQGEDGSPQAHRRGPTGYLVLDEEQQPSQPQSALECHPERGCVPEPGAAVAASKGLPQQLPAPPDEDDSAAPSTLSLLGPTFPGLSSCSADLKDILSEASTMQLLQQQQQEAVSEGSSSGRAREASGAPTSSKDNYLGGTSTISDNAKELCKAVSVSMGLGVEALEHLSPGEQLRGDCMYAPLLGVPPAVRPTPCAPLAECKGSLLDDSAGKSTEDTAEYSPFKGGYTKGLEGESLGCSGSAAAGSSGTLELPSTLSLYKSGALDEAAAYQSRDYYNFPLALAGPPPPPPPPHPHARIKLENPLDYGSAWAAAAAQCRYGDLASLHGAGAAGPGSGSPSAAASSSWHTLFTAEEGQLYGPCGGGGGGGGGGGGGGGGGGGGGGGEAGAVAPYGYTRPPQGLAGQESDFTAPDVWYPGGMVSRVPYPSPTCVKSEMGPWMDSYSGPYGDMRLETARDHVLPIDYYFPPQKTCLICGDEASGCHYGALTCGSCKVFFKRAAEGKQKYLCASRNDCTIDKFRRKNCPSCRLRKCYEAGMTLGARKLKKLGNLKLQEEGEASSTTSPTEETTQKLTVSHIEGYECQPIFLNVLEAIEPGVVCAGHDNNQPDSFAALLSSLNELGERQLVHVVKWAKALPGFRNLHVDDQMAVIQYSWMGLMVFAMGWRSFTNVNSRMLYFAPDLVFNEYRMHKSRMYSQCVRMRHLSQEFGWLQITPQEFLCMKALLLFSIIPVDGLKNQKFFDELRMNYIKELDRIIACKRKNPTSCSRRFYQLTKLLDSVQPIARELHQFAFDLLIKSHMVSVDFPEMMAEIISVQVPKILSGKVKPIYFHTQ
# Assay: LNCaP PSA (6.1 kb)-luciferase assay (R1881-induced)
# Type: cell-based
# Details: FIG. 7A, 1 μM to 35 μM
# Source text: LNCaP cells were employed initially for all experiments because they are well-differentiated human prostate cancer cells in which ligand-independent activation of the AR by FSK has been characterized (Nazareth et al 1996 J. Biol. Chem. 271, 19900-19907; and Sadar 1999 J. Biol. Chem. 274, 7777-7783). LNCaP cells express endogenous AR and secrete prostate-specific antigen (PSA) (Horoszewicz et al 1983 Cancer Res. 43, 1809-1818). LNCaP cells can be grown either as monolayers in cell culture or as tumors in the well-characterized xenograft model that progresses to androgen independence in castrated hosts (Sato et al 1996 J. Steroid Biochem. Mol. Biol. 58, 139-146; Gleave et al 1991 Cancer Res. 51, 3753-3761; Sato et al 1997 Cancer Res. 57, 1584-1589; and Sadar et al 2002 Mol. Cancer Ther. 1(8), 629-637). […] Small molecules that specifically target the AR-NTD should have no effect on PC3 cells. This means that they should not alter the proliferation of PC3 cells if they specifically block the AR to mediate their inhibitory effects. R1881 was employed since it is stable and avoids problems associated with the labile physiological ligand dihydrotestosterone (DHT). Reporter specificity may be determined using several alternative reporter gene constructs. Some well characterized ARE-driven reporter gene constructs that have been used extensively are the PSA (6.1 kb) enhance/promoter which contains several AREs and is highly inducible by androgens as well as by FSK (Ueda et al 2002 A J. Biol. Chem. 277, 7076-7085) and the ARR3-thymidine kinase (tk)-luciferase, which is an artificial reporter construct that contains three tandem repeats of the rat probasin ARE1 and ARE2 regions upstream of a luciferase reporter (Snoek et al 1996 J. Steroid Biochem. Mol. Biol. 59, 243-250).
# LNCaP cells were transiently cotransfected with PSA (6.1 kb)-luciferase (0.25 μg/well) in 24-well plates for 24 h prior to pre-treatment with compounds for 1 hour before the addition of synthetic androgen, R1881 (1 nM) to induce PSA production or vehicle. The total amount of plasmid DNA transfected was normalized to 0.75 μg/well by the addition of the empty vector. After 48 h of incubation with R1881, the cells were harvested, and relative luciferase activity was determined. Test compounds were added to the cells at various concentrations and activity for each treatment was normalized to the predicted maximal activity induction (in the absence of test compounds, vehicle only). Plotting of sigmoidal curves (Boltzmann Function) and IC50 calculations were done using OriginPro 8.1 Sofware (Northampton, Mass., USA).
# Using the LNCaP PSA (6.1 kb)-luciferase assay described above, various compounds described herein were tested against DMSO and EPI-001 controls. In FIG. 1, a comparison is made between EPI-035 and DMSO and EPI-001 or EPI-026 from 1 μM to 10 μM. […] In FIGS. 3A and 3B, EPI-040 and EPI-051 are compared to DMSO and EPI-001 at 1 μM to 30 μM and 2.5 μM to 35 μM respectively. In FIGS. 4A and 4B, EPI-043 is compared to DMSO and EPI-001 at 5 μM to 35 μM 0.25 μM to 25 μM respectively.
# Similarly, in FIG. 7B concentrations of EPI-6000, EPI-6001, EPI-6002, and EPI-6003 are shown at 12.5 μM and 25 μM as compared to the DMSO control.
row,Compound,dose response as compared to the DMSO control
1,OC(CCl)COc1ccccc1Cc1ccccc1OCC(O)CCl (stereo not drawn) [EPI-900],showed a dose response

# Same assay, conditions: LNCaP PSA (6.1 kb)-luciferase assay, versus DMSO and EPI-001 controls
row,Compound,androgen receptor modulating activity
1,CC(C)(c1ccc(OCCO)cc1)c1ccc(OCCCCl)cc1 [EPI-035],showed androgen receptor modulating activity
2,CC(=O)OCCOc1ccc(C(C)(C)c2ccc(OCCCCl)cc2)cc1 [EPI-037],showed androgen receptor modulating activity
3,CC(C)(c1ccc(OCCCCl)cc1)c1ccc(OCCCCl)cc1 [EPI-038],showed androgen receptor modulating activity
4,CC(C)(c1ccc(O)cc1)c1ccc(OCCOCCOCCO)cc1 [EPI-040],showed androgen receptor modulating activity
5,CC(C)(c1ccc(OCCCCCCCl)cc1)c1ccc(OCCOCCOCCO)cc1 [EPI-043],showed androgen receptor modulating activity
6,C#CCOc1ccc(C(C)(C)c2ccc(OC[C@@H](O)CCl)cc2)cc1 [EPI-046],showed androgen receptor modulating activity
7,C#CCOc1ccc(C(C)(C)c2ccc(OC[C@H](O)CCl)cc2)cc1 [EPI-047],showed androgen receptor modulating activity
8,C#CCOc1ccc(C(C)(C)c2ccc(OCC(O)CO)cc2)cc1 (stereo not drawn) [EPI-051],showed androgen receptor modulating activity
9,OC(CCl)COc1ccccc1Cc1ccccc1OCC(O)CCl (stereo not drawn) [EPI-900],showed androgen receptor modulating activity
10,CC(C)(c1ccc(OCC(O)CCl)cc1)c1ccccc1OCC(O)CO (stereo not drawn) [EPI-6000],showed androgen receptor modulating activity
11,CC(C)(c1ccc(OCC(O)CCl)cc1)c1ccccc1OCC(O)CO (stereo not drawn) [EPI-6001],showed androgen receptor modulating activity
12,CC(C)(c1ccc(OCC(O)CCl)cc1)c1ccccc1OCC(O)CO (stereo not drawn) [EPI-6002],showed androgen receptor modulating activity
13,CC(C)(c1ccc(OCC(O)CCl)cc1)c1ccccc1OCC(O)CO (stereo not drawn) [EPI-6003],showed androgen receptor modulating activity

# Same assay, conditions: LNCaP cells transfected with PSA (6.1 kb)-luciferase, 1 h pre-treatment, R1881 1 nM, 48 h
row,Compound,EXPERIMENTAL DATA (activity in the described assays)
1,CC(C)(c1ccc(OCCO)cc1)c1ccc(OCCCCl)cc1 [drawing 869],Active
2,CC(=O)OCCOc1ccc(C(C)(C)c2ccc(OCCCCl)cc2)cc1 [drawing 870],Active
3,CC(C)(c1ccc(OCCCCl)cc1)c1ccc(OCCCCl)cc1 [drawing 871],Active
4,CC(C)(c1ccc(OCCCCCCCl)cc1)c1ccc(OCCOCCOCCO)cc1 [drawing 874],Active
5,C#CCOc1ccc(C(C)(C)c2ccc(OC[C@@H](O)CCl)cc2)cc1 [drawing 875],Active
6,C#CCOc1ccc(C(C)(C)c2ccc(OC[C@H](O)CCl)cc2)cc1 [drawing 876],Active
7,C#CCOc1ccc(C(C)(C)c2ccc(OCC(O)CO)cc2)cc1 (centres unmarked) [drawing 877],Active
8,OC(CCl)COc1ccccc1Cc1ccccc1OCC(O)CCl (centres unmarked) [drawing 878],Active
9,CC(C)(c1ccc(OCC(O)CCl)cc1)c1ccccc1OCC(O)CO (centres unmarked) [drawing 879],Active

# From patent US9388112B2, “Bisphenol derivatives and their use as androgen receptor activity modulators” (The University of British Columbia, priority 2010, dated 2016)
